According to patent US20070259926A1, “mGluR5 modulators III” (AstraZeneca AB, priority 2006, published 2007):

Tests used:
human mGluR5d = target: T1, human mGluR5d (Homo sapiens, UniProt P41594); assay: FLIPR assay: functional assessment of mGluR5 antagonism (intracellular calcium mobilization); type: cell-based; conditions: cells expressing human mGluR5d; read-out: FLIPR hmGluR5d
T1 construct: expressed in transfected cells
Description: The properties of the compounds of the invention can be analyzed using standard assays for pharmacological activity. Examples of glutamate receptor assays are well known in the art as described in for example Aramori et al., Neuron 8:757 (1992), Tanabe et al., Neuron 8:169 (1992), Miller et al., J. Neuroscience 15:6103 (1995), Balazs, et al., J. Neurochemistry 69:151 (1997). The methodology described in these publications is incorporated herein by reference. Conveniently, the compounds of the invention can be studied by means of an assay (FLIPR) that measures the mobilization of intracellular calcium, [Ca^2+]i in cells expressing mGluR5 or another assay (IP3) that measures inositol phosphate turnover.
Cells expressing human mGluR5d as described in WO97/05252 are seeded at a density of 100,000 cells per well on collagen coated clear bottom 96-well plates with black sides and experiments are done 24 h following seeding. […] The fluorescence signal is sampled 50 times at 1 second intervals followed by 3 samples at 5 second intervals immediately after each of the two additions. Responses are measured as the difference between the peak height of the response to agonist, less the background fluorescence within the sample period. […]

[1] = Determination of brain to plasma ratio in rat; type: in vivo; conditions: brain and plasma, female Sprague Dawley rats, read-out: Brain/Plasma Ratio of compound in Rat
Description: Brain to plasma ratios are estimated in female Sprague Dawley rats. The compound is dissolved in water or another appropriate vehicle. For determination of brain to plasma ratio the compound is administrated as a subcutaneous, or an intravenous bolus injection, or an intravenous infusion, or an oral administration. At a predetermined time point after the administration a blood sample is taken with cardiac puncture. The rat is terminated by cutting the heart open, and the brain is immediately retained. The blood samples are collected in heparinized tubes and centrifuged within 30 minutes, in order to separate the plasma from the blood cells. The plasma is transferred to 96-well plates and stored at −20° C. until analysis. The brains are divided in half, and each half is placed in a pre-tarred tube and stored at −20° C. until analysis. Prior to the analysis, the brain samples are thawed and 3 ml/g brain tissue of distilled water is added to the tubes. The brain samples are sonicated in an ice bath until the samples are homogenized. Both brain and plasma samples are precipitated with acetonitrile. After centrifugation, the supernatant is diluted with 0.2% formic acid. […] After reconstitution of the residuals the samples are ready for injection onto the HPLC column.

T1 sequence (P41594 21-942 isoform P41594-3 limits assumed): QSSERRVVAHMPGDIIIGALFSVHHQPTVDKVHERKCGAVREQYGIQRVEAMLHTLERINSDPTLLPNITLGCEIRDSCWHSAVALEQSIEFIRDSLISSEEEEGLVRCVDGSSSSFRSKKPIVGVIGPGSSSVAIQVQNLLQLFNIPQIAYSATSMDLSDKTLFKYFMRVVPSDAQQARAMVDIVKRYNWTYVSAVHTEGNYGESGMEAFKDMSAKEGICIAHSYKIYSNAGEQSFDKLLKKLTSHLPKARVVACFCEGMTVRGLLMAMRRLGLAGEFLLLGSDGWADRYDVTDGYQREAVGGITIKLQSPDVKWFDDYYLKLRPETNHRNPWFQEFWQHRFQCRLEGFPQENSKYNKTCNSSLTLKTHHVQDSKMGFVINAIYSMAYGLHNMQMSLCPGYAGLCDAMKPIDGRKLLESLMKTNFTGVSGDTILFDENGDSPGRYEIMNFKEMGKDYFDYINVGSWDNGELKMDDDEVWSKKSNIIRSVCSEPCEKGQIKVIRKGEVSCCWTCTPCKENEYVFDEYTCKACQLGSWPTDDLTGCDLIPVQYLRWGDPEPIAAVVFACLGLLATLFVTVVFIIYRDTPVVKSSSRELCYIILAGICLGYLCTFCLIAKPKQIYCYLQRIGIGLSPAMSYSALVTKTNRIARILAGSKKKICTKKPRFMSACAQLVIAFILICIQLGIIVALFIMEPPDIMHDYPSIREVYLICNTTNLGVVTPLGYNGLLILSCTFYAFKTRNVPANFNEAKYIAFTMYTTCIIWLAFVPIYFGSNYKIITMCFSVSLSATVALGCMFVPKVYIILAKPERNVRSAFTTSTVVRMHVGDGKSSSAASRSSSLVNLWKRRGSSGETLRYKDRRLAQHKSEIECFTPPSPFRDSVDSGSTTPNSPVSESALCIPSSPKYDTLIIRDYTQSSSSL

Cc1cc(-c2nnc(N3CCC[C@@H]3c3nnn(-c4cccc(Cl)c4)n3)n2C)ccn1 [Example 15.1, 4-(5-{(R)-2-[2-(3-Chloro-phenyl)-2H-tetrazol-5-yl]-pyrrolidin-1-yl}-4-methyl-4H-[1,2,4]triazol-3-yl)-2-methyl-pyridine]
IC50 (human mGluR5d): 11 nM | Kp [1]: 0.27

COc1cc(-c2nnc(N3CCC[C@@H]3c3nnn(-c4cccc(C#N)c4)n3)n2C)ccn1 [Example 15.3, 3-(5-{(R)-1-[5-(2-Methoxy-pyridin-4-yl)-4-methyl-4H-[1,2,4]triazol-3-yl]-pyrrolidin-2-yl}-tetrazol-2-yl)-benzonitrile]
IC50 (human mGluR5d): 50 nM | Kp [1]: 0.13
